Reference: patent publication US5229109A, “Low toxicity interleukin-2 analogues for use in immunotherapy” (priority 1992, dated 1993)

Tests used:
[1] = biological target: T1, intermediate receptor p75 (Homo sapiens, UniProt P14784); details: Sauve et al., 1991; cited from earlier work
T1 sequence (P14784 27-551): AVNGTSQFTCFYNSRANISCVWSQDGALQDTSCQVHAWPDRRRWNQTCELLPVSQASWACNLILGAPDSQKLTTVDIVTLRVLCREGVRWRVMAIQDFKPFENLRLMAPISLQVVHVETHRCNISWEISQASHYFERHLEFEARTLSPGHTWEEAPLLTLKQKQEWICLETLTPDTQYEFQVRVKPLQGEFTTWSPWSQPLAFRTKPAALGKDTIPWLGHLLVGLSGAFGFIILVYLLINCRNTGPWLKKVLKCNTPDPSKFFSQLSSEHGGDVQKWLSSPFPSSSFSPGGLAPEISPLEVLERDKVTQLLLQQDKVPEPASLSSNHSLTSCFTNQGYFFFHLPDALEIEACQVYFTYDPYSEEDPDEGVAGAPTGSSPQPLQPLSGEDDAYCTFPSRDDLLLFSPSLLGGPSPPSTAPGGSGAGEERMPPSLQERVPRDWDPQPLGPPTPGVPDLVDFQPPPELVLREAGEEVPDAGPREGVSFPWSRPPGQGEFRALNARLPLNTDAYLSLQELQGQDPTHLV
T1 sequence (P31785 23-369 partner): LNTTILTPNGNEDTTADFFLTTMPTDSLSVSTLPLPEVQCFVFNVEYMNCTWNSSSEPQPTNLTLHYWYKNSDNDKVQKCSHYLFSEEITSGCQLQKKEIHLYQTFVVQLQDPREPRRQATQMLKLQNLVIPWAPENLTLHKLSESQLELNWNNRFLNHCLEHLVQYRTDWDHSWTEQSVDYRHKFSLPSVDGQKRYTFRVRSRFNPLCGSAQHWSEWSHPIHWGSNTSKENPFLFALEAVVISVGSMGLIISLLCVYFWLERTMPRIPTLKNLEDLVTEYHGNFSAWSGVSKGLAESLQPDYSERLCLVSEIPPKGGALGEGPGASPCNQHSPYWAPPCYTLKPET

[2] = test system: IL-2 receptor p55 on PBMC; test: FACS analysis of p55 expression on cultured PBMC; type: cell-based, human; details: cultures stimulated for 72 hours
Protocol: Cultured PBMC were washed with PBS, 1% bovine serum albumin (BSA), and 0.1% sodium azide. To approximately one million cells, FITC-labelled monoclonal antibody against IL-2 receptor p55 or a non-specific control mouse IgG (Becton-Dickinson) was added. Following incubation for 30 minutes, the cells were washed twice using a Sorvall cell washer 2L, then fixed in PBS and 1% paraformaldehyde. The cells were then analyzed on Becton-Dickinson FACScan and results were presented as per cent of gated cells positive for p55 after subtraction of non-specific background fluorescence.

[3] = biological target: T2, low affinity receptor p55 (Homo sapiens, UniProt P01589); details: Sauve et al., 1991; cited from earlier work
T2 sequence (P01589 22-272): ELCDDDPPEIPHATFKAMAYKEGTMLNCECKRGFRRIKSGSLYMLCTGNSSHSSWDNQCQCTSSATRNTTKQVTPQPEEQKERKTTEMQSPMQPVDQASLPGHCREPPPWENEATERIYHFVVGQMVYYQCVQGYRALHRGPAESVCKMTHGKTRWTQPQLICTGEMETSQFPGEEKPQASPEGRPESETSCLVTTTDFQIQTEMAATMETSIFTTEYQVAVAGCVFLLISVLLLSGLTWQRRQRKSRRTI

[4] = test system: peripheral blood mononuclear cells (IL-1β secretion); test: IL-1β secretion by PBMC, ELISA of LAK culture supernatants; type: cell-based, human; details: for IL-1β secretion decreased: maximal decrease vs native IL-2, supernatants at 24 hour intervals up to 7 days
Protocol: (§1) The abilities of the same concentrations of IL-2 and the analogues to stimulate peripheral blood mononuclear cells to secrete IL-1β and TNF-α in vitro were first compared. At 24 hour intervals up to 7 days, the LAK culture supernatants from the above-described experiment were collected and tested for IL-1β and TNF-α content using ELISA methodology. Commercially available ELISA kits were purchased from R & D Systems (TNF-α and TNF-β ), Immunotech (IL-1α and IL-1β), and Endogen (IFN-γ). The ELISAs were performed according to the protocols supplied by the manufacturer.
(§2) Fresh peripheral blood mononuclear cells (PBMC) obtained from leukopharesis of normal human donors were isolated over a Ficoll-Hypaque gradient. […] Non-adherent cells were tested for cytotoxicity against Daudi targets by a 4 hour ^51 Cr release assay, with specific lysis being presented as the mean of triplicate values. Cell-free supernatants from 3 day PBMC cultures were analyzed by ELISA for cytokine content.

[5] = test system: peripheral blood mononuclear cells (TNF-α secretion); test: TNF-α secretion by PBMC, ELISA of LAK culture supernatants; type: cell-based, human; details: for TNF-α decreased: maximal decrease vs native IL-2, supernatants at 24 hour intervals up to 7 days
Protocol: as §1, §2

IL-2 receptor p75 = biological target: T3, IL-2 receptor p75 (Homo sapiens, UniProt P14784); test: IL-2 specific binding assay, intermediate affinity receptor
T3 construct: Each assay contained approximately 6×10^5 cells; endogenous in cells
T3 sequence (P14784 27-551): T1 sequence (P14784 27-551)
T3 sequence (P31785 23-369 partner): T1 sequence (P31785 23-369 partner)
Protocol: The cells were then incubated for 1 hour at 37° C. and the washing procedure was repeated three times. […] Nonspecific binding was determined by inclusion of 50 nM unlabeled human rIL-2 in the assay. Incubations were carried out in duplicate or triplicate for 20 minutes at 37° C.

Daudi targets = test: LAK generation, 4 hour 51Cr release cytotoxicity assay; type: cell-based, human; details: 100:1 effector:target ratio; 0.5 nM native IL-2 or 1 nM mutants
Protocol: The abilities of optimal concentrations of IL-2 and the analogues to stimulate peripheral blood mononuclear cells to generate lymphokine activated killing (LAK) in vitro were next compared.
as §2

[6] = all time points, p<0.05, 3-way ANOVA

| Substance | affinity for the intermediate receptor p75 [1] | percentage of cells expressing p55 [2] [%] | percentage of cells expressing p55 doubled [2] | binding to the low affinity receptor p55 [3] | IL-1β compared to that produced in response to native IL-2 [4, 6] | IL-1β secretion decreased [4] | TNF-α compared to that produced in response to native IL-2 [5, 6] | TNF-α decreased [5] [%] | ability to bind IL-2 receptor p75 (IL-2 receptor p75) | % maximal specific lysis (Daudi targets) [%] |
| --- | --- | --- | --- | --- | --- | --- | --- | --- | --- | --- |
| F42K: recombinant human IL-2 analogue, Phenylalanine (F) at position 42→Lysine (K) | maintained their affinity | 30 | doubled | could no longer bind | significantly decreased | up to 43% | significantly decreased | ≤ 77 | maintain their ability to bind | 54 |
| R38A | maintained their affinity | – | – | could no longer bind | – | ≤ 28% | – | ≤ 66 | maintain their ability to bind | 55 |
